From patent US8168747B2, “On-growth inhibiting compounds” (Viogard AB, priority 2002, dated 2012)
Entries after “also recorded” stand apart in the source; their conditions may differ.

How the values were obtained:
B. improvisus [1] = experiment: Larval bioassay: settlement and mortality of barnacle cyprids; type: in vivo, Balanus improvisus
Experimental: (§1) The brood stock of adult barnacles (B. improvisus, Darwin 1854) were allowed to settle on plexiglass panels in the sea on a raft outside Tjärnö Marine Biological Laboratory (58° 53′ N, 11° 8′ E). Cleaned from epiphytes they were brought to the laboratory and immediately placed in trays with running seawater (salinity […]). When regularly fed, with nauplii of Artemia salina, B. improvisus will spawn throughout the year. For larval rearing we used the method according to Berntsson et al., described in “Reduction of barnacle recruitment on micro-textured surfaces: Analysis of effective topographic characteristics and evaluation of skin friction”, Biofouling 16, 245-261. The experiment for the evaluation of the effect on settlement and mortality was performed using polystyrene Petri dishes (Ø48 mm) to which 10 ml of the peptide dissolved to different concentrations in filtered seawater (0.2 μm, 32±1%) was added. Competent cyprids (20±2 ind.) were added to each dish in four replicates and dishes with filtered seawater served as controls. Dishes were maintained for 3-4 days in room temperature after which they were examined under a stereo microscope for attached and metamorphosed individuals and also, for dead cyprids.
Results are reported as means±standard error and using 1-factor analysis of variance (ANOVA).

B. improvisus [2] = experiment: Reversibility test: cyprids moved to fresh seawater; type: in vivo, Balanus improvisus; details: cyprids from 2.5 μM moved to fresh sea water; five days
Experimental: as §1
Half of the number of cyprids in each petri dish incubated at the highest tested concentration, 2.5 μM, were moved to a petri dish containing 10 ml of fresh seawater. […]

Helicoverpa punctigera = details: feeding trial, cited from earlier work

Substance: cyclo(VWIPCISSAIGCSCKSKVCYRNGIPCGESC) (head-to-tail cyclic) [cycloviolacin O2]
- settlement (B. improvisus [1]; 0.0025 μM (lowest tested concentration), 3-4 days, control 67±3%): 68±3%
- settlement (B. improvisus [1]; 0.025 μM, 3-4 days): 21±0.5%
- inhibition of settlement (B. improvisus [1]; 0.25 μM, 3-4 days): complete inhibition of settlement; also recorded: complete inhibition of fouling
- mortality compared to the control (B. improvisus [1]; all tested concentrations up to 2.5 μM, control saltwater only): No one of the tested concentrations showed an increase in mortality; also recorded: No increase in mortality could be detected
- mortality in reversibility test (B. improvisus [2]): No increase in mortality was observed

Substance: kalata B1: cyclotide with potent insecticidal activities reported by Jennings and coworkers (cyclo(GLPVCGETCVGGTCNTPGCTCSWPVCTRN); not fully specified (bridges); cysteine pairing not given here; UniProt P56254 89-117, looked up)
- mortality of insect larvae (Helicoverpa punctigera; over time): increase in mortality over time
- growth and development of the insect larvae (Helicoverpa punctigera): greatly affected
